Results taken from US20230293458A1, “MULTIBIOTIC AGENTS AND METHODS OF USING THE SAME” (Flagship Pioneering Innovations V, Inc., priority 2017, published 2023).

Tests used:
[1] = Stability of multibiotic agents in Simulated Gastric Fluid (SGF); assay type: in vitro ADME; settings: simulated gastric fluid pH 1.6 with pepsin, 37° C., 1 μM
Procedure: Assay 3. Stability of multibiotic agents in Simulated Gastric Fluid (SGF). This assay can be used to assess the stability of a multibiotic agent in a stomach.
Medium was prepared by dissolving 2 g of sodium chloride in 0.6 L in ultrapure water (MilliQ®, Millipore Sigma, Darmstadt, Germany). The pH was adjusted to 1.6 with 1 N hydrochloric acid, and the volume was then adjusted to 1 L with purified water.
60 mg FaSSIF powder (Biorelevant™, London, UK) were dissolved in 500 mL buffer (above). Pepsin was added (0.1 mg/mL) (Millipore Sigma, Darmstadt, Germany), and the solution was stirred. The resulting SGF media were used fresh for each experiment.
Test compounds were dissolved in DMSO stock to 1 mM. An aliquot of the DMSO stock solution was removed and diluted in the SGF Media in 15 mL falcon tubes to generate a total compound concentration of 1 μM. A 1 mL aliquot was immediately removed and diluted once with 1 volume of acetonitrile for T0 timepoint. The mixture was sealed and mixed at 37° C. in an incubator. Aliquots (1 mL) were removed at regular intervals and immediately quenched by the addition of 1 volume of acetonitrile. The resulting samples were analyzed by LC/MS to determine degradation rates in SGF.

[2] = Stability of multibiotic agents in Simulated Intestinal Fluid (SIF); assay type: in vitro ADME; settings: simulated intestinal fluid pH 6.7 with pancreatin, 37° C., 1 μM
Procedure: Assay 2. Stability of multibiotic agents in Simulated Intestinal Fluid (SIF). This assay can be used to assess the stability of a multibiotic agent in a small intestine. Phosphate buffer was prepared by dissolving 0.42 g of sodium hydroxide pellets and 3.95 g of monobasic sodium phosphate monohydrate and 6.19 g of sodium chloride in ultrapure water (MilliQ®, Millipore Sigma, Darmstadt, Germany). The pH was adjusted to 6.7 using aq. HCl and aq. NaOH, as necessary, and the solution was diluted with ultrapure water to produce 1 L of the pH 6.7 buffer. 112 mg FaSSIF powder (Biorelevant™, London, UK) was dissolved in 50 mL of the pH 6.7 buffer. 2 to 3 mL of the resulting solution were then added to 500 mg pancreatin (Millipore Sigma, Darmstadt, Germany). The resulting mixture was agitated by finger tapping the vessel containing the mixture until milky suspension formed. At this time, the remainder of the 50 mL FaSSiF/pH 6.7 buffer solution was added. The resulting suspension was flipped upside down 10 times to produce SIF, which was used fresh. Test compounds are dissolved in DMSO stock to 1 mM. An aliquot of the DMSO stock solution is removed and diluted in the SIF media in 15 mL falcon tubes to produce a mixture with a tested compound concentration of 1 μM. A 1 mL aliquot is immediately removed and diluted once with 1 volume of acetonitrile for T0 timepoint. The mixture is sealed and agitated at 37° C. in an incubator. Aliquots (1 mL) are removed at regular intervals and immediately quenched by the addition of 1 volume of acetonitrile. The resulting samples are analyzed by LC/MS to determine degradation rates.

For `CC(C)(COC(=O)CCc1c[nH]c2ccccc12)[C@@H](OC(=O)CCc1c[nH]c2ccccc12)C(=O)NCCC(N)=O` [Example 98, [(3R)-4-[(3-amino-3-oxo-propyl)amino]-3-[3-(1H-indol-3-yl)propanoyloxy]-2,2-dimethyl-4-oxo-butyl] 3-(1H-indol-3-yl)propanoate], the “Assay 2 (SGF) (% Remaining @ 4 hours)” value [1] was “C (>75% of the tested compound remaining)” and the “Assay 3 (SIF) (% @ Remaining 4 hours)” value [2] was “A (<25% of the tested compound remaining)”.
For `CC(=O)OCc1cnc(C)c(OC(C)=O)c1COC(C)=O` [Example 99, [5-acetoxy-4-(acetoxymethyl)-6-methyl-3-pyridyl] methyl acetate], the “Assay 2 (SGF) (% Remaining @ 4 hours)” value [1] was “C (>75% of the tested compound remaining)” and the “Assay 3 (SIF) (% @ Remaining 4 hours)” value [2] was “C (>75% of the tested compound remaining)”.
With `CCCC(=O)OCc1cnc(C)c(OC(=O)CCC)c1COC(=O)CCC` [Example 100, [5-butanoyloxy-4-(butanoyloxymethyl)-6-methyl-3-pyridyl]methyl butanoate] the “Assay 2 (SGF) (% Remaining @ 4 hours)” value [1] was “C (>75% of the tested compound remaining)” and the “Assay 3 (SIF) (% @ Remaining 4 hours)” value [2] was “C (>75% of the tested compound remaining)”.
With `CCCC(=O)O[C@H](C)CC(=O)OCc1cnc(C)c(OC(=O)C[C@@H](C)OC(=O)CCC)c1COC(=O)C[C@@H](C)OC(=O)CCC` [Example 101, [5-[(3R)-3-butanoyloxybutanoyl]oxy-4-[[(3R)-3-butanoyloxybutanoyl]oxymethyl]-6-methyl-3-pyridyl]methyl (3R)-3-butanoyloxybutanoate] the “Assay 2 (SGF) (% Remaining @ 4 hours)” value [1] was “C (>75% of the tested compound remaining)” and the “Assay 3 (SIF) (% @ Remaining 4 hours)” value [2] was “C (>75% of the tested compound remaining)”.
With `Cc1ncc(COC(=O)Cc2c[nH]c3ccccc23)c(COC(=O)Cc2c[nH]c3ccccc23)c1OC(=O)Cc1c[nH]c2ccccc12` [Example 102, [5-[2-(1H-indol-3-yl)acetyl]oxy-4-[[2-(1H-indol-3-yl)acetyl]oxymethyl]-6-methyl-3-pyridyl]methyl 2-(1H-indol-3-yl)acetate] the “Assay 2 (SGF) (% Remaining @ 4 hours)” value [1] was “C (>75% of the tested compound remaining)” and the “Assay 3 (SIF) (% @ Remaining 4 hours)” value [2] was “B (25-75% of the tested compound remaining)”.
In the case of `Cc1ncc(COC(=O)CCc2c[nH]c3ccccc23)c(COC(=O)CCc2c[nH]c3ccccc23)c1OC(=O)CCc1c[nH]c2ccccc12` [Example 103, [5-[3-(1H-indol-3-yl)propanoyloxy]-4-[3-(1H-indol-3-yl)propanoyloxymethyl]-6-methyl-3-pyridyl]methyl3-(1H-indol-3-yl)propanoate], the “Assay 2 (SGF) (% Remaining @ 4 hours)” value [1] is reported as “C (>75% of the tested compound remaining)” and the “Assay 3 (SIF) (% @ Remaining 4 hours)” value [2] is reported as “A (<25% of the tested compound remaining)”.
For `O=C(Cc1c[nH]c2ccccc12)OC[C@@H](O)[C@H](COC(=O)Cc1c[nH]c2ccccc12)OC(=O)Cc1c[nH]c2ccccc12` [Example 104, [(2R,3S)-2-hydroxy-3,4-bis[[2-(1H-indol-3-yl)acetyl]oxy]butyl] 2-(1H-indol-3-yl)acetate], the “Assay 2 (SGF) (% Remaining @ 4 hours)” value [1] was “C (>75% of the tested compound remaining)” and the “Assay 3 (SIF) (% @ Remaining 4 hours)” value [2] was “B (25-75% of the tested compound remaining)”.
In the case of `O=C(Cc1c[nH]c2ccccc12)OC[C@H](OC(=O)Cc1c[nH]c2ccccc12)[C@@H](COC(=O)Cc1c[nH]c2ccccc12)OC(=O)Cc1c[nH]c2ccccc12` [Example 105, [(2R,3S)-2,3,4-tris[[2-(1H-indol-3-yl)acetyl]oxy]butyl] 2-(1H-indol-3-yl)acetate], the “Assay 2 (SGF) (% Remaining @ 4 hours)” value [1] is reported as “C (>75% of the tested compound remaining)” and the “Assay 3 (SIF) (% @ Remaining 4 hours)” value [2] is reported as “B (25-75% of the tested compound remaining)”.
In the case of `O=C(Cc1c[nH]c2ccccc12)OC[C@@H](OC(=O)Cc1c[nH]c2ccccc12)[C@H]1OC[C@H](OC(=O)Cc2c[nH]c3ccccc23)[C@H]1OC(=O)Cc1c[nH]c2ccccc12` [Example 106, [(2R)-2-[(2R,3R,4S)-3,4-bis[[2-(1H-indol-3-yl)acetyl]oxy]tetrahydrofuran-2-yl]-2-[2-(1H-indol-3-yl)acetyl]oxy-ethyl] 2-(1H-indol-3-yl)acetate], the “Assay 2 (SGF) (% Remaining @ 4 hours)” value [1] is reported as “C (>75% of the tested compound remaining)” and the “Assay 3 (SIF) (% @ Remaining 4 hours)” value [2] is reported as “C (>75% of the tested compound remaining)”.
With `O=C(CCc1c[nH]c2ccccc12)OC[C@@H](OC(=O)CCc1c[nH]c2ccccc12)[C@H]1OC[C@H](OC(=O)CCc2c[nH]c3ccccc23)[C@H]1OC(=O)CCc1c[nH]c2ccccc12` [Example 107, [(2R)-2-[(2R,3R,4S)-3,4-bis[3-(1H-indol-3-yl)propanoyloxy]tetrahydrofuran-2-yl]-2-[3-(1H-indol-3-yl)propanoyloxy]ethyl] 3-(1H-indol-3-yl)propanoate] the “Assay 2 (SGF) (% Remaining @ 4 hours)” value [1] was “C (>75% of the tested compound remaining)” and the “Assay 3 (SIF) (% @ Remaining 4 hours)” value [2] was “B (25-75% of the tested compound remaining)”.
With `CCCC(=O)O[C@H]1CO[C@H]2[C@@H]1OC[C@H]2OC(=O)CCC` [Example 108, [(3S,3aR,6R,6aR)-6-butanoyloxy-2,3,3a,5,6,6a-hexahydrofuro[3,2-b]furan-3-yl] butanoate] the “Assay 2 (SGF) (% Remaining @ 4 hours)” value [1] was “C (>75% of the tested compound remaining)” and the “Assay 3 (SIF) (% @ Remaining 4 hours)” value [2] was “B (25-75% of the tested compound remaining)”.
With `O=C(CCc1c[nH]c2ccccc12)O[C@H]1CO[C@H]2[C@@H]1OC[C@H]2OC(=O)CCc1c[nH]c2ccccc12` [Example 110, [(3S,3aR,6R,6aR)-6-[3-(1H-indol-3-yl)propanoyloxy]-2,3,3a,5,6,6a-hexahydrofuro[3,2-b]furan-3-yl] 3-(1H-indol-3-yl) propanoate] the “Assay 2 (SGF) (% Remaining @ 4 hours)” value [1] was “C (>75% of the tested compound remaining)” and the “Assay 3 (SIF) (% @ Remaining 4 hours)” value [2] was “A (<25% of the tested compound remaining)”.
For `C[C@@H](O)CC(=O)OCCCNC(=O)[C@H](OC(=O)C[C@@H](C)O)C(C)(C)COC(=O)C[C@@H](C)O` [Example 111, 3-[[(2R)-2,4-bis[[(3R)-3-hydroxybutanoyl]oxy]-3,3-dimethyl-butanoyl]amino]propyl (3R)-3-hydroxybutanoate], the “Assay 2 (SGF) (% Remaining @ 4 hours)” value [1] was “C (>75% of the tested compound remaining)” and the “Assay 3 (SIF) (% @ Remaining 4 hours)” value [2] was “C (>75% of the tested compound remaining)”.
With `C[C@@H](O)CC(=O)OCC(C)(C)[C@@H](OC(=O)C[C@@H](C)O)C(=O)NCCC(N)=O` [Example 114, [(3R)-4-[(3-amino-3-oxo-propyl)amino]-3-[(3R)-3-hydroxybutanoyl]oxy-2,2-dimethyl-4-oxo-butyl] (3R)-3-hydroxybutanoate] the “Assay 2 (SGF) (% Remaining @ 4 hours)” value [1] was “C (>75% of the tested compound remaining)” and the “Assay 3 (SIF) (% @ Remaining 4 hours)” value [2] was “C (>75% of the tested compound remaining)”.
For `CC(=O)CC(=O)O[C@H]1CO[C@H]2[C@@H]1OC[C@H]2OC(=O)CC(C)=O` [Example 115, [(3S,3aR,6R,6aR)-6-(3-oxobutanoyloxy)-2,3,3a,5,6,6a-hexahydrofuro[3,2-b]furan-3-yl] 3-oxobutanoate], the “Assay 2 (SGF) (% Remaining @ 4 hours)” value [1] was “C (>75% of the tested compound remaining)” and the “Assay 3 (SIF) (% @ Remaining 4 hours)” value [2] was “B (25-75% of the tested compound remaining)”.
For `CCCC(=O)Nc1ccc(O)c(C(=O)O)c1` [Example 116, 5-(butanoylamino)-2-hydroxy-benzoic acid], the “Assay 2 (SGF) (% Remaining @ 4 hours)” value [1] was “C (>75% of the tested compound remaining)” and the “Assay 3 (SIF) (% @ Remaining 4 hours)” value [2] was “C (>75% of the tested compound remaining)”.
In the case of `CCCC(=O)O[C@@H]1[C@H](OC(=O)CCC)COC(Oc2ccc(N)cc2C(=O)O)[C@@H]1OC(=O)CCC` (stereo partly drawn) [Example 117, 5-amino-2-[(3R,4R,5R)-3,4,5-tri(butanoyloxy)tetrahydropyran-2-yl]oxy-benzoic acid], the “Assay 2 (SGF) (% Remaining @ 4 hours)” value [1] is reported as “C (>75% of the tested compound remaining)” and the “Assay 3 (SIF) (% @ Remaining 4 hours)” value [2] is reported as “C (>75% of the tested compound remaining)”.
For `CC(=O)Oc1ccc(/C=C/c2cc(OC(C)=O)cc(OC(C)=O)c2)cc1` [Example 118, [(E)-2-(3,5-diacetoxyphenyl)vinyl]phenyl] acetate], the “Assay 2 (SGF) (% Remaining @ 4 hours)” value [1] was “C (>75% of the tested compound remaining)” and the “Assay 3 (SIF) (% @ Remaining 4 hours)” value [2] was “C (>75% of the tested compound remaining)”.
For `CCCC(=O)O[C@H](C)CC(=O)Oc1ccc2c(c1)oc(=O)c1cc(OC(=O)C[C@@H](C)OC(=O)CCC)c(OC(=O)C[C@@H](C)OC(=O)CCC)cc12` [Example 122, [8,9-bis[[(3R)-3-butanoyloxybutanoyl]oxy]-6-oxo-benzo[c]chromen-3-yl] (3R)-3-butanoyloxybutanoate], the “Assay 2 (SGF) (% Remaining @ 4 hours)” value [1] was “C (>75% of the tested compound remaining)” and the “Assay 3 (SIF) (% @ Remaining 4 hours)” value [2] was “A (<25% of the tested compound remaining)”.
